Experimental data as given in PMC8889123 (International journal for parasitology, 2019).

Target: T1, Ser/Thr protein phosphatase 5 (PbPP5) (Plasmodium berghei, UniProt A0A509AMH5)
T1 sequence (A0A509AMH5 407-711): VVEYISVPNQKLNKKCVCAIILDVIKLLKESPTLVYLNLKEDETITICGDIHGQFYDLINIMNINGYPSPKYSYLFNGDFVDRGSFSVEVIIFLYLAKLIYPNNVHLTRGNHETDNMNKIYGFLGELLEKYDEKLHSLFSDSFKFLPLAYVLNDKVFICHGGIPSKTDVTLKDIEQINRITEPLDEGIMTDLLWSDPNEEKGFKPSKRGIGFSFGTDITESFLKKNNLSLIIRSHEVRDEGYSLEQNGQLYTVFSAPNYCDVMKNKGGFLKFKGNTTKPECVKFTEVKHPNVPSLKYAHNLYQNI
Format: biochemical

C[C@]1(C(=O)O)[C@@H]2CC[C@@H](O2)[C@@]1(C)C(=O)O [cantharidic acid]
IC50: 0.122 µM

O=C(O)[C@@H]1[C@H](C(=O)O)[C@H]2CC[C@@H]1O2 [endothall]
IC50: 0.365 µM

C[C@@]12C(=O)OC(=O)[C@]1(C)[C@H]1CC[C@@H]2O1 [cantharidin]
IC50: 0.0743 µM

C=C1[C@@H](O)[C@@H]2O[C@]3(CC[C@H](/C=C/[C@@H](C)[C@@H]4CC(C)=C[C@@]5(O[C@H](C[C@@](C)(O)C(=O)O)CC[C@H]5O)O4)O3)CC[C@H]2O[C@@H]1[C@@H](O)C[C@H](C)[C@H]1O[C@@]2(CCCCO2)CC[C@H]1C [okadaic acid]
IC50: 0.0013 µM
